≈ marks a conversion by molar mass, not a printed value.
Experiments:
[1] = test system: P. falciparum field isolate TM335; conditions: cited from earlier work
[2] = test system: P. falciparum field isolate TM352; conditions: strain TM352; cited from earlier work
[3] = test system: P. falciparum W2; conditions: strain W2; cited from earlier work
[4] = test system: P. falciparum field isolate TM346; conditions: cited from earlier work
[5] = test system: P. falciparum field isolate TM336; conditions: strain TM336; cited from earlier work
[6] = test system: P. falciparum field isolate PR145; conditions: cited from earlier work
[7] = test system: W2mef parasites (resistant to mefloquine); assay: Mefloquine resistance reversal study, W2mef (FIGS. 2, 3, 5); type: cell-based, P. falciparum; conditions: mefloquine alone without oligonucleotide, below threshold mefloquine concentration
[8] = test system: P. falciparum W2mef; conditions: strain W2mef; cited from earlier work

SMILES | IC50 [1] [ng/mL] | IC50 [2] [ng/mL] | IC50 [3] [ng/mL] | IC50 [4] [ng/mL] | IC50 [5] [ng/mL] | IC50 [6] [ng/mL] | 3H-hypoxanthine incorporated on average [7] | IC50 [8] [ng/mL]
CCCCN(CCCC)CCC(O)c1cc2c(Cl)cc(Cl)cc2c2cc(C(F)(F)F)ccc12 (stereo not shown) [halofantrine] | 0.61 (≈ 0.00122 µM) | 3.0 (≈ 0.00599 µM) | 0.3 (≈ 0.000599 µM) | 3.7 (≈ 0.00739 µM) | 2.8 (≈ 0.0056 µM) | 2.0 (≈ 0.004 µM) |  | 
OC(c1cc(C(F)(F)F)nc2c(C(F)(F)F)cccc12)C1CCCCN1 (stereo not shown) [mefloquine] | 6 (≈ 0.0159 µM) | 22 (≈ 0.0582 µM) | 2 (≈ 0.00529 µM) | 20 (≈ 0.0529 µM) | 15 (≈ 0.0396 µM) | 10 (≈ 0.0264 µM) | 11,000 cpm | 16 (≈ 0.0423 µM)
C=C[C@H]1C[N@@]2CC[C@H]1C[C@H]2[C@H](O)c1ccnc2ccc(OC)cc12 [quinine] | 65 (≈ 0.2 µM) | 1.2 (≈ 0.0037 µM) | 74 (≈ 0.228 µM) |  | 87 (≈ 0.268 µM) | 90 (≈ 0.277 µM) |  | 

From patent US6440660B1 (priority 1995, dated 2002)
